Laboratory results: patent US9650408B2, “Therapeutic agent for hypertension” (SRI INTERNATIONAL, priority 2005, dated 2017)

Tests used:
[1] = test system: postmenopausal breast cancer patients; assay: Blood pressure in postmenopausal breast cancer patients given oral TAS-108; assay type: in vivo, human
Procedure: TAS-108 (40 mg, 80 mg, or 120 mg) was orally administered to postmenopausal breast cancer patients (age: 50 to 78) once a day after breakfast for up to eight weeks. Blood pressure was measured in a sitting position before administration on the day of initiation of administration, and two weeks, four weeks, and eight weeks after initiation of administration.

[2] = test system: spontaneously hypertensive rats (SHRs); assay: Blood pressure and heart rate in spontaneously hypertensive rats, tail-cuff method; assay type: in vivo, rat; details: 100 mg once a day for seven days; for change in heart rate: FIG. 6 (TAS-108), FIG. 7 (raloxifene)
Procedure: TAS-108 (100 mg) was administered to nine-week-old spontaneously hypertensive rats (SHRs) once a day for consecutive seven days. Before final administration of the test drug, and 30 minutes, one hour, two hours, and four hours after the final administration, blood pressure was measured in a state where heart rate is constant by means of an […] automatic rat/mouse blood pressure measuring apparatus (BP-97A, product of Softron) according to the tail-cuff method (J. Lab. Clin. Med. 1971; 78: 957-962). For comparison, a solvent (0.5% HPMC) or raloxifene, serving as a control drug, was administered in a dose of 100 mg once a day for consecutive seven days.
Percent increase/decrease in blood pressure after final administration of the test drug was obtained on the basis of the blood pressure as measured before final administration of the drug, and the thus-obtained values were compared with one another.

estrogen receptor (ER) = details: cited from earlier work
estrogen receptor α = molecular target: T1, estrogen receptor α (Homo sapiens, UniProt P03372); details: cited from earlier work
T1 sequence (P03372 1-595): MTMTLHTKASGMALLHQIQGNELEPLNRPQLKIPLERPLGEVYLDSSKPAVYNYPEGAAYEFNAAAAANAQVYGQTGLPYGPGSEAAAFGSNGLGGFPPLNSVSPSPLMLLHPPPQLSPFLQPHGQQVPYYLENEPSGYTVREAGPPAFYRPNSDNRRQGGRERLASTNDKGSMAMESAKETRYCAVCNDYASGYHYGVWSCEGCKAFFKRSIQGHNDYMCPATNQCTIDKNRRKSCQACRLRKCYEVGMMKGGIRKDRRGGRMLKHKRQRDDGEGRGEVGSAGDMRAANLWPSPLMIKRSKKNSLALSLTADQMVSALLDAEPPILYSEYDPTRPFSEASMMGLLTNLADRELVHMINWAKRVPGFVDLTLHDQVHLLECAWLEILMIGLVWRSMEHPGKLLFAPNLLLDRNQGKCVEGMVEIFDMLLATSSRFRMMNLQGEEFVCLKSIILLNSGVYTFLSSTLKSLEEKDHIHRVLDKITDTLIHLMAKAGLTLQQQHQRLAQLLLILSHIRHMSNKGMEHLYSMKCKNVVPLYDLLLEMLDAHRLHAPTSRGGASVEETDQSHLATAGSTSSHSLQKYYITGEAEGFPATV

[3] = test system: postmenopausal hypertensive patients; details: 142±13 mmHg before; cited from earlier work
[4] = SHR, relative to pressure before final administration, FIG. 5
[5] = SHR, during the course of measurement, FIG. 7

Row | SMILES | systolic or diastolic blood pressure ([1]; four hypertensive patients (systolic 140 mmHg or higher or diastolic 90 mmHg or higher), 40, 80 or 120 mg orally once a day, two to four weeks after initiation, FIGS. 1 to 3) | change in blood pressure ([1]; remaining 11 breast cancer patients with normal blood pressure, during the course of administration, FIG. 4) | reduction of systolic blood pressure ([1]; typical hypertensive patient (FIG. 2), four weeks after initiation of administration) | systolic blood pressure after administration ([1]; typical hypertensive patient (FIG. 2), four weeks after initiation, 180 mmHg before administration) [mmHg] | change in heart rate ([2]; SHR) | time of maximum percent decrease in blood pressure ([2]; SHR, after final administration, FIG. 5) | reduction of diastolic blood pressure [2, 4] [%] | reduction of mean blood pressure [2, 4] [%] | blood pressure ([2]; all SHRs, one to two hours after final administration) | affinity to estrogen receptor (ER) (estrogen receptor (ER)) | agonistic effect on estrogen receptor α (estrogen receptor α) | antagonistic effect on estrogen receptor α (estrogen receptor α) | change in diastolic blood pressure [2, 5] | change in mean blood pressure [2, 5] | change in systolic blood pressure [2, 5] | systolic blood pressure after administration [3] [mmHg]
1 | CCN(CC)Cc1ccc(OCC[C@H]2CCC3C4C(CC[C@@]32C)c2ccc(O)cc2C[C@H]4C)c(OC)c1 (stereo partly drawn) [TAS-108, (7α)-21-[4-[(Diethylamino)methyl]-2-methoxyphenoxy]-7-methyl-19-norpregna-1,3,5(10)-trien-3-ol] | reduced to fall within a normal pressure range | no considerable change in blood pressure | about 40 mmHg | 138 | No considerable change in heart rate | two hours after administration | 46.9 | 28.6 | blood pressure was reduced | strong affinity | virtually no agonistic effect | potent antagonistic effect | – | – | – | –
2 | O=C(c1ccc(OCCN2CCCCC2)cc1)c1c(-c2ccc(O)cc2)sc2cc(O)ccc12 [raloxifene, reference compound] | – | – | – | – | no considerable change | – | – | – | – | – | – | – | no considerable change | no considerable change | no considerable change | 139±10
